In brackets after ≈: the same amount, converted by molar mass.
What was measured:
[1] = tested on: Yersinia sp.; test: In vitro antibacterial activity against Yersinia species; format: functional, yersinia spp; settings: Yersinia sp. (in: enterobacteria)
[2] = tested on: Enterococcus faecalis; test: In vitro antibacterial activity against Enterococcus faecalis ATCC 29212; format: functional
[3] = tested on: Pseudomonas aeruginosa; test: In vitro antibacterial activity against Pseudomonas aeruginosa VR5; format: functional
[4] = tested on: Streptococcus pneumoniae; test: In vitro antibacterial activity against Streptococcus pneumoniae; format: functional
[5] = tested on: Escherichia coli; test: In vitro antibacterial activity against Escherichia. coli L; format: functional
[6] = tested on: Stenotrophomonas maltophilia; test: In vitro antibacterial activity against Xanthomonas maltophilia; format: functional
[7] = tested on: Escherichia coli; test: In vitro antibacterial activity against Escherichia. coli TEM2; format: functional
[8] = tested on: Morganella morganii; test: In vitro antibacterial activity against Morganella morganii; format: functional
[9] = tested on: Bacteroides fragilis; test: In vitro antibacterial activity against Bacteroides fragilis; format: functional
[10] = tested on: Escherichia coli; test: In vitro antibacterial activity against Escherichia. coli ATCC 25922; format: functional
[11] = tested on: Staphylococcus aureus; test: In vitro antibacterial activity against Staphylococcus aureus ATCC 25923; format: functional
[12] = tested on: Proteus mirabilis; test: In vitro antibacterial activity against Proteus mirabilis; format: functional
[13] = tested on: Klebsiella pneumoniae; test: In vitro antibacterial activity against Klebsiella pneumoniae; format: functional
[14] = tested on: Escherichia coli; test: In vitro antibacterial activity against Escherichia. coli SHV; format: functional
[15] = tested on: Staphylococcus aureus; test: In vitro antibacterial activity against Staphylococcus aureus MR; format: functional
[16] = tested on: Haemophilus influenzae; test: In vitro antibacterial activity against Haemophilus influenzae; format: functional
[17] = tested on: Staphylococcus aureus; test: In vitro antibacterial activity against Staphylococcus aureus MR13; format: functional
[18] = tested on: Staphylococcus epidermidis; test: In vitro antibacterial activity against Staphylococcus epidermidis; format: functional
[19] = tested on: Escherichia coli; test: In vitro antibacterial activity against Escherichia coli; format: functional
[20] = tested on: Clostridium perfringens; test: In vitro antibacterial activity against Clostridium perfringens; format: functional
[21] = tested on: Acinetobacter calcoaceticus subsp. anitratus; test: In vitro antibacterial activity against Acinetobacter anitratus; format: functional
[22] = tested on: Pseudomonas aeruginosa; test: In vitro antibacterial activity against Pseudomonas aeruginosa ATCC 27853; format: functional
[23] = tested on: Escherichia coli; test: In vitro antibacterial activity against Escherichia. coli TEM1; format: functional
[24] = tested on: Providencia rettgeri; test: In vitro antibacterial activity against Providencia rettgerii; format: functional
[25] = tested on: Streptococcus agalactiae; test: In vitro antibacterial activity against Streptococcus agalactiae B; format: functional
[26] = tested on: Staphylococcus aureus; test: In vitro antibacterial activity against Staphylococcus aureus ATCC 29213; format: functional
[27] = tested on: Aeromonas sp.; test: In vitro antibacterial activity against Aeromonas species.; format: functional
[28] = tested on: Listeria monocytogenes; test: In vitro antibacterial activity against Listeria monocytogenes; format: functional
[29] = tested on: Proteus vulgaris; test: In vitro antibacterial activity against Proteus vulgaris; format: functional
[30] = tested on: Providencia stuartii; test: In vitro antibacterial activity against Providencia stuartii; format: functional
[31] = tested on: Moraxella catarrhalis; test: In vitro antibacterial activity against Branhamella catarrhalis; format: functional
[32] = tested on: Staphylococcus aureus; test: In vitro antibacterial activity against Staphylococcus aureus MS; format: functional
[33] = tested on: Citrobacter freundii; test: In vitro antibacterial activity against Citrobacter freundii; format: functional
[34] = tested on: Staphylococcus aureus; test: In vitro antibacterial activity against Staphylococcus aureus MR09; format: functional
[35] = tested on: Pseudomonas aeruginosa; test: In vitro antibacterial activity against Pseudomonas aeruginosa; format: functional
[36] = tested on: Klebsiella aerogenes; test: In vitro antibacterial activity against Enterobacter aerogenes; format: functional
[37] = tested on: Pseudomonas aeruginosa; test: In vitro antibacterial activity against Pseudomonas aeruginosa G242; format: functional
[38] = tested on: Enterococcus faecalis; test: In vitro antibacterial activity against Enterococcus faecalis; format: functional
[39] = tested on: Enterococcus faecium; test: In vitro antibacterial activity against Enterococcus faecium; format: functional
[40] = tested on: Streptococcus pyogenes; test: In vitro antibacterial activity against Streptococcus pyogenes A; format: functional
[41] = tested on: Escherichia coli; test: In vitro antibacterial activity against Escherichia. coli DC2; format: functional
[42] = tested on: Pseudomonas aeruginosa; test: microbe, parasite or virus in culture; settings: ATCC 27853

CC1(C)S[C@@H]2[C@H](NC(=O)[C@H](N)c3ccccc3)C(=O)N2[C@H]1C(=O)O.CC1(C)[C@H](C(=O)O)N2C(=O)C[C@H]2S1(=O)=O
MIC90 [1]: 32 µg/mL
MIC [2]: 1 µg/mL
MIC [3]: 0.12 µg/mL
MIC90 [4]: 0.03 µg/mL
MIC [5]: 8 µg/mL
MIC90 [6]: > 64 µg/mL
MIC [7]: 8 µg/mL
MIC90 [8]: 16 µg/mL
MIC90 [9]: 4 µg/mL
MIC [10]: 8 µg/mL
MIC [11]: 0.03 µg/mL
MIC90 [12]: 32 µg/mL
MIC90 [13]: 16 µg/mL
MIC [14]: > 32 µg/mL
MIC90 [15]: 32 µg/mL
MIC90 [16]: 1 µg/mL
MIC [17]: 0.12 µg/mL
MIC90 [18]: 4 µg/mL
MIC90 [19]: 8 µg/mL
MIC90 [20]: 0.12 µg/mL
MIC90 [21]: 32 µg/mL
MIC [22]: 32 µg/mL
MIC [23]: > 32 µg/mL
MIC90 [24]: 32 µg/mL
MIC90 [25]: 0.06 µg/mL
MIC [26]: 0.25 µg/mL
MIC90 [27]: > 32 µg/mL
MIC90 [28]: 0.5 µg/mL
MIC90 [29]: 8 µg/mL
MIC90 [30]: 64 µg/mL
MIC90 [31]: 0.5 µg/mL
MIC90 [32]: 1 µg/mL
MIC90 [33]: > 64 µg/mL
MIC [34]: 4 µg/mL
MIC90 [35]: > 64 µg/mL
MIC90 [36]: > 64 µg/mL
MIC [37]: > 32 µg/mL
MIC90 [38]: 2 µg/mL
MIC90 [39]: > 64 µg/mL
MIC90 [40]: 0.03 µg/mL

C[C@@H](O)[C@H]1C(=O)N2C(C(=O)O)=C(COC(N)=O)S[C@H]12 [RITIPENEM]
MIC [2]: 2 µg/mL (≈ 6.94 µM)
MIC [3]: 0.5 µg/mL (≈ 1.73 µM)
MIC [5]: 1 µg/mL (≈ 3.47 µM)
MIC [7]: 1 µg/mL (≈ 3.47 µM)
MIC [10]: 0.5 µg/mL (≈ 1.73 µM)
MIC [11]: 0.06 µg/mL (≈ 0.208 µM)
MIC [14]: 1 µg/mL (≈ 3.47 µM)
MIC [17]: 0.12 µg/mL (≈ 0.416 µM)
MIC [22]: > 32 µg/mL
MIC [23]: 1 µg/mL (≈ 3.47 µM)
MIC [41]: 1 µg/mL (≈ 3.47 µM)
MIC [26]: 0.12 µg/mL (≈ 0.416 µM)
MIC [34]: 2 µg/mL (≈ 6.94 µM)
MIC [37]: 1 µg/mL (≈ 3.47 µM)

C[C@@H](O)[C@H]1C(=O)N2C(C(=O)O)=C(SCCNC=N)C[C@H]12 [IMIPENEM ANHYDROUS]
MIC90 [1]: 0.25 µg/mL (≈ 0.835 µM)
MIC [2]: 0.5 µg/mL (≈ 1.67 µM)
MIC [3]: 0.25 µg/mL (≈ 0.835 µM)
MIC90 [4]: 0.06 µg/mL (≈ 0.2 µM)
MIC [5]: 0.12 µg/mL (≈ 0.401 µM)
MIC90 [6]: > 64 µg/mL
MIC [7]: 0.25 µg/mL (≈ 0.835 µM)
MIC90 [8]: 2 µg/mL (≈ 6.68 µM)
MIC90 [9]: 0.25 µg/mL (≈ 0.835 µM)
MIC [10]: 0.12 µg/mL (≈ 0.401 µM)
MIC [11]: < 0.03 µg/mL
MIC90 [12]: 2 µg/mL (≈ 6.68 µM)
MIC90 [13]: 0.25 µg/mL (≈ 0.835 µM)
MIC [14]: 0.25 µg/mL (≈ 0.835 µM)
MIC90 [15]: > 32 µg/mL
MIC [42]: 1 µg/mL (≈ 3.34 µM)
MIC90 [16]: 1 µg/mL (≈ 3.34 µM)
MIC [17]: 0.12 µg/mL (≈ 0.401 µM)
MIC90 [18]: 0.25 µg/mL (≈ 0.835 µM)
MIC90 [19]: 0.12 µg/mL (≈ 0.401 µM)
MIC90 [20]: 0.03 µg/mL (≈ 0.1 µM)
MIC90 [21]: 0.5 µg/mL (≈ 1.67 µM)
MIC [23]: 0.25 µg/mL (≈ 0.835 µM)
MIC90 [24]: 1 µg/mL (≈ 3.34 µM)
MIC90 [25]: 0.015 µg/mL (≈ 0.0501 µM)
MIC [41]: 0.5 µg/mL (≈ 1.67 µM)
MIC [26]: < 0.03 µg/mL
MIC90 [27]: 0.06 µg/mL (≈ 0.2 µM)
MIC90 [28]: 0.03 µg/mL (≈ 0.1 µM)
MIC90 [29]: 2 µg/mL (≈ 6.68 µM)
MIC90 [30]: 2 µg/mL (≈ 6.68 µM)
MIC90 [31]: 0.03 µg/mL (≈ 0.1 µM)
MIC90 [32]: 0.015 µg/mL (≈ 0.0501 µM)
MIC90 [33]: 0.5 µg/mL (≈ 1.67 µM)
MIC [34]: 0.25 µg/mL (≈ 0.835 µM)
MIC90 [35]: 8 µg/mL (≈ 26.7 µM)
MIC90 [36]: 4 µg/mL (≈ 13.4 µM)
MIC [37]: 0.25 µg/mL (≈ 0.835 µM)
MIC90 [38]: 2 µg/mL (≈ 6.68 µM)
MIC90 [39]: > 64 µg/mL
MIC90 [40]: 0.06 µg/mL (≈ 0.2 µM)

C[C@@H](O)[C@H]1C(=O)N2C(C(=O)O)=C(CN(C)CC(=O)N(C)C)SC12 (some centres undefined)
MIC [2]: 8 µg/mL (≈ 23.3 µM)
MIC [3]: 4 µg/mL (≈ 11.6 µM)
MIC [5]: 0.5 µg/mL (≈ 1.46 µM)
MIC [7]: 1 µg/mL (≈ 2.91 µM)
MIC [10]: 0.5 µg/mL (≈ 1.46 µM)
MIC [11]: 0.12 µg/mL (≈ 0.349 µM)
MIC [14]: 1 µg/mL (≈ 2.91 µM)
MIC [17]: 0.25 µg/mL (≈ 0.728 µM)
MIC [22]: > 32 µg/mL
MIC [23]: 1 µg/mL (≈ 2.91 µM)
MIC [41]: 1 µg/mL (≈ 2.91 µM)
MIC [26]: 0.25 µg/mL (≈ 0.728 µM)
MIC [34]: 4 µg/mL (≈ 11.6 µM)
MIC [37]: 0.5 µg/mL (≈ 1.46 µM)
